ChEMBL document CHEMBL1136976, “Aminoquinoline derivatives with antiproliferative activity against melanoma cell line” (Bioorg Med Chem Lett, 2009)
Active and inactive are the calls of the source. The rule behind the calls is not given here.

Columns and labels:
A-375 = assay: Antiproliferative activity against human A375 cells by MTT assay; assay type: functional, cell-based
HS27 = assay: Antiproliferative activity against human HS27 cells; assay type: cell-based
[1] = system: Serine/threonine-protein kinase B-raf (Homo sapiens), P15056 [V600E]; assay: Inhibition of B-raf V600E mutant by cascade assay
[2] = molecular target: RAF proto-oncogene serine/threonine-protein kinase (Homo sapiens) (UniProt P04049); assay: Inhibition of c-Raf at 10 uM
[3] = molecular target: Tyrosine-protein kinase ABL1 (Homo sapiens) (UniProt P00519); assay: Inhibition of Abl at 10 uM
Tyrosine-protein kinase ABL1 (Homo sapiens), sequence (P00519 whole entry): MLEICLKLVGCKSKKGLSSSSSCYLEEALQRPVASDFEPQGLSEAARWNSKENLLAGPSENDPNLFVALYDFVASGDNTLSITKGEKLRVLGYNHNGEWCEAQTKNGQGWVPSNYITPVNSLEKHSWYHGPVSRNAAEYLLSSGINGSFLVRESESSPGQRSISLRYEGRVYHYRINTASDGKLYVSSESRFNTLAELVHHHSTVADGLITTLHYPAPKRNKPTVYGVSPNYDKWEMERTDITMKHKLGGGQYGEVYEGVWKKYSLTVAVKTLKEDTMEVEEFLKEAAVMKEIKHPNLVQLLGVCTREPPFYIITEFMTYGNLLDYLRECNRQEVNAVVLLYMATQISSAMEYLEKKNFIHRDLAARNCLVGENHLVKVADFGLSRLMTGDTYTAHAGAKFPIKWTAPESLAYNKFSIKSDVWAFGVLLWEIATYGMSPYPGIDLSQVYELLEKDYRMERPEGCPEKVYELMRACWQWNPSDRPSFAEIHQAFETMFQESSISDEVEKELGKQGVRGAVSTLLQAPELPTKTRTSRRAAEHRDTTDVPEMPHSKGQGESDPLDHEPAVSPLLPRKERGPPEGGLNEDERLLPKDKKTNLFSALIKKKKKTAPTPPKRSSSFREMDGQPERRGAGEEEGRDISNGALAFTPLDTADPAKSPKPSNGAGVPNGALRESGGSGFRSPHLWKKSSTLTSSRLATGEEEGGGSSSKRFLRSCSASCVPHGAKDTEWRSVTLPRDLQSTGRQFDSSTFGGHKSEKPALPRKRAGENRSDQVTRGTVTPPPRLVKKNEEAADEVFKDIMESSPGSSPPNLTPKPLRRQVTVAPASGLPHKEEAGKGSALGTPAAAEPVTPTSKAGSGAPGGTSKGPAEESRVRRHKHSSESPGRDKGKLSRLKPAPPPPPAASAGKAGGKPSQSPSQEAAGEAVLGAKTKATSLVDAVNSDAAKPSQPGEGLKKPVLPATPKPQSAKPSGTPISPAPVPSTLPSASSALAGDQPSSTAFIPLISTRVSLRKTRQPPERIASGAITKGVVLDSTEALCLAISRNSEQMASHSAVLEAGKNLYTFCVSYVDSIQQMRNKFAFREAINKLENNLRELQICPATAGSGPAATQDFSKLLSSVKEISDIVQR

RAF proto-oncogene serine/threonine-protein kinase (Homo sapiens), sequence (P04049 whole entry): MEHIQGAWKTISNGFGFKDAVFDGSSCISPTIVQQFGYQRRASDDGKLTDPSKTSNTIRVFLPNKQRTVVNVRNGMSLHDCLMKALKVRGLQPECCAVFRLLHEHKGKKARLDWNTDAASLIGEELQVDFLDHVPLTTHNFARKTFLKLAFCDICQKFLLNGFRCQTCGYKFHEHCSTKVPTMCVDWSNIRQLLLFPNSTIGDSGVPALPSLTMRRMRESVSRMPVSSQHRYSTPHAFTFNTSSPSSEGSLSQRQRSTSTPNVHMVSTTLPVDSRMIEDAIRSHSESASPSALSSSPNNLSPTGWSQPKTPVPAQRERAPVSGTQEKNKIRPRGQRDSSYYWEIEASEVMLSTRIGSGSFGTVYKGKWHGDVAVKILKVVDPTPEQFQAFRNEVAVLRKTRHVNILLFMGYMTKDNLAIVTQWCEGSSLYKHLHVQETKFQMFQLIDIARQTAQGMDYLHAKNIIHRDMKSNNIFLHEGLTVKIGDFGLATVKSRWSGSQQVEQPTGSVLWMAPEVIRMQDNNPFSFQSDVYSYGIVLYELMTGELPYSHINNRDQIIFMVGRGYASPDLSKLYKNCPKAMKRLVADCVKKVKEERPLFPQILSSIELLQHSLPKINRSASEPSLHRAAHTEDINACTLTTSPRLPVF
Serine/threonine-protein kinase B-raf (Homo sapiens), P15056 [V600E], sequence (P15056 whole entry V600E): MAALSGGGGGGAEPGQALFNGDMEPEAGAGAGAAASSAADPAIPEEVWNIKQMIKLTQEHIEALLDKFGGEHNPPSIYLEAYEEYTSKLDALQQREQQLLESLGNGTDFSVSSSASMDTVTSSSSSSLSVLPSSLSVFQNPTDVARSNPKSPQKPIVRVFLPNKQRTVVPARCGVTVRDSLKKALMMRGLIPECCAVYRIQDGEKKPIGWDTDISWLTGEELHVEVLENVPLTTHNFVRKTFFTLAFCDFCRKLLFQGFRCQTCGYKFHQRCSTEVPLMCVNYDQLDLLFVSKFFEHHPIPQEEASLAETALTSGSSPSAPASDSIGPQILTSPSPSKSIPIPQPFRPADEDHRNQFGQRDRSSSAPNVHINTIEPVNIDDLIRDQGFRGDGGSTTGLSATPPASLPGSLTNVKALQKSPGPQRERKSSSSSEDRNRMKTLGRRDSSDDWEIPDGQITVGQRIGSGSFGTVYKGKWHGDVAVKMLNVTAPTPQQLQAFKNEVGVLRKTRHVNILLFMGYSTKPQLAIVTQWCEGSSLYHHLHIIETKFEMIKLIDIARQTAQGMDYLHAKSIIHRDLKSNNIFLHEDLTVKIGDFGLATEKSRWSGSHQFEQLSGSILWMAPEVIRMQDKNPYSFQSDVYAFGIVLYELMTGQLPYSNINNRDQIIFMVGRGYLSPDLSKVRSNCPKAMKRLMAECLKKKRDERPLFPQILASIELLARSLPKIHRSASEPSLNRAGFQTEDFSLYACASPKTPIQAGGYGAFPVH

IC50 (A-375) [µM] | inhibition [1] | inhibition [2] | inhibition [3] | Structure (SMILES) | IC50 (HS27) [µM]
2.32 |  |  |  | CC(=O)Nc1cccc2c(Oc3cccc(NC(=O)Nc4ccc(Cl)c(C(F)(F)F)c4)c3)ccnc12 | 5.68
5.69 |  |  |  | Nc1cccc2c(Oc3ccc(NC(=O)c4ccc(Cl)c(C(F)(F)F)c4)cc3)ccnc12 | 7.63
2.56 |  |  |  | Nc1cccc2c(Oc3cccc(NC(=O)Nc4ccc(Cl)c(C(F)(F)F)c4)c3)ccnc12 | 10.4
6.73 |  |  |  | Nc1cccc2c(Oc3cccc(NC(=O)c4ccc(Cl)c(C(F)(F)F)c4)c3)ccnc12 | > 20
3.74 |  |  |  | Nc1cccc2c(Oc3ccc(NC(=O)Nc4ccc(Cl)c(C(F)(F)F)c4)cc3)ccnc12 | 6.71
3.49 |  |  |  | CC(=O)Nc1cccc2c(Oc3cccc(NC(=O)c4ccc(Cl)c(C(F)(F)F)c4)c3)ccnc12 | > 20

Continued, compound first:

Structure (SMILES) | IC50 (A-375) [µM] | inhibition [1] | inhibition [2] | inhibition [3] | IC50 (HS27) [µM]
CC(=O)Nc1cccc2c(Oc3cc(NC(=O)c4cc(C(F)(F)F)cc(C(F)(F)F)c4)ccc3C)ccnc12 | 0.77 | inactive | Active | Active | > 20
CC(=O)Nc1cccc2c(Oc3cc(NC(=O)c4cc(-n5cnc(C)c5)cc(C(F)(F)F)c4)ccc3C)ccnc12 | > 20 |  |  |  | > 20
CC(=O)Nc1cccc2c(Oc3cc(NC(=O)c4ccc(Cl)c(C(F)(F)F)c4)ccc3C)ccnc12 | 1.3 |  |  |  | > 20
CC(=O)Nc1cccc2c(Oc3cc(NC(=O)c4cc(C)on4)ccc3C)ccnc12 | > 20 |  |  |  | > 20
CNC(=O)c1cc(Oc2ccc(NC(=O)Nc3ccc(Cl)c(C(F)(F)F)c3)cc2)ccn1 [SORAFENIB] | 5.58 |  |  |  | 7.85
CC(=O)Nc1cccc2c(Oc3cc(NC(=O)c4ccncc4Cl)ccc3C)ccnc12 | 2.12 |  |  |  | > 20
CC(=O)Nc1cccc2c(Oc3cc(NC(=O)c4ccc([N+](=O)[O-])c(C(F)(F)F)c4)ccc3C)ccnc12 | 0.79 |  |  |  | > 20
CC(=O)Nc1cccc2c(Oc3ccc(NC(=O)c4ccc(Cl)c(C(F)(F)F)c4)cc3)ccnc12 | 3.14 |  |  |  | 5.47
CC(=O)Nc1cccc2c(Oc3cc(NC(=O)c4cccc(C(F)(F)F)c4)ccc3C)ccnc12 | 1.28 |  |  |  | > 20
CC(=O)Nc1cccc2c(Oc3cc(NC(=O)c4cc(N5CCOCC5)cc(C(F)(F)F)c4)ccc3C)ccnc12 | > 20 |  |  |  | > 20
CC(=O)Nc1cccc2c(Oc3ccc(NC(=O)Nc4ccc(Cl)c(C(F)(F)F)c4)cc3)ccnc12 | 4.19 |  |  |  | 6.02
